Measurements taken from patent publication US20120009280A1, “METHOD OF REDUCING THE RATE OF DEGRADATION OF A BIOLOGICAL MATERIAL” (Bio-Energy Ingredients Limited, priority 2009, published 2012).

What was measured:
total micro-organism = experiment: Total microbial (plate) count of spent brewer's / wet distiller's grains stored at ambient temperature; type: cell-based; conditions: for preservation time with total microbial counts <10 cfu/g / preservation time with total microbial counts <100 cfu/g / preservation time with total microbial counts <1000 cfu/g: distiller's grains not de-watered, Examples 16-18
From the text: Samples of spent brewer's grains were drawn from the discharge line of a brewery in South Africa. The samples, packed in dry ice in a cold box, were transported over a distance of approximately 40 kilometres to a laboratory. At the laboratory, the samples were thoroughly mixed and initially split into a first portion (Portion 1) and a second portion (Portion 2). The second portion was about twice the size of the first. Portion 1 was left untreated. Material produced from Portion 1 and Portion 2 is designated below using the code “AR” (as received).
Portion 2 was placed on a clean, standard, laboratory screen deck with 1.4 mm apertures supported from below. As much water as possible was manually squeezed out with a clean flat plastic disc and the sample was then manually remixed after the squeezing. The squeezed material was then split into a third portion (Portion 3) and a fourth portion (Portion 4) of approximately the same size. Material produced from Portion 3 and Portion 4 is designated below using the code “SO” (squeezed).
Portion 4 was added to a high speed kitchen food-shredder and shredded for about two minutes. The shredded material was then returned to the 1.4 mm aperture screen and squeezed again, as described above, and manually remixed again after the second squeezing to produce a shredded and squeezed portion (Portion 5). Material produced from Portion 5 is designated below using the code “SH” (shredded).
Samples of Portion 1 (“AR”), Portion 3 (“SO”) and Portion 5 (“SH”) were then delivered to a microbiological testing facility about 15 kilometres from the treatment laboratory. Each was tested for initial total microbial, yeast and mould counts, respectively.
Separate untreated samples were similarly stored under insect-proof screens at ambient temperature for seven days (as shown in Tables 1 and 2). During the trial period the ambient temperature ranged from 11 to 33 degrees C.
After exposure to the environment for seven days, all of the samples were tested at a South African National Accreditation System (SANAS) approved microbiological testing facility. Each was tested for total micro-organism, yeast and mould counts to determine the affect of the various treatments.
Samples of spent brewer's grains were drawn from the discharge line of a brewery in South Africa.
At the laboratory, the samples were thoroughly mixed and initially split into a first portion (Portion 1) and a second portion (Portion 2). Portion 1 was left untreated. A sample of Portion 1, was delivered immediately to a microbiological testing facility about 15 kilometres away from the treatment laboratory and was tested for initial total microbial, yeast and mould counts, respectively.
Samples from Portion 2 were subjected to treatment with varying amounts of a powdered, commercially-available calcium oxide containing approximately 94% calcium oxide (CaO) as shown in Table 32. The treatments varied from 2.5 to 10% (w/w) calcium oxide addition. The samples were stored in batches (according to the calcium oxide treatment) under insect-proof screens at ambient temperature for fifty six days. […] During the trial period the ambient temperature ranged from 10 to 30 degrees C. As this period was the southern hemisphere spring/early summer, the humidity as well as ambient temperatures varied widely.
Samples from each treatment were drawn every seven days. No further calcium oxide treatment or agitation took place after the initial mix. In each case the entire sample was isolated and delivered to the microbiological testing facility.
(§1) In this trial the same source of wet distiller's grains (again with now partial water removal prior to treatment) was treated.
as §1

[1] = pH of suspensions of grain samples in distilled water or PBS; conditions: 1% (w/w) in distilled water
Description: The untreated sample (A) was compared visually against the corresponding quicklime-treated sample (B).
On Day 7, 10 g amounts of each sample were suspended in either 90 ml PBS or 90 ml sterile distilled water and shaken for 10 minutes. The pH of each suspension was then measured and compared.
On Day 9, 10 g of each sample was suspended in 90 ml PBS and shaken for 10 minutes. The pH was measured.

[2] = dose 10% w/w, partially de-watered wet distiller's grains, Example 8

[Ca+2].[OH-].[OH-] [(CaOH)2 powder]
Total plate count (total micro-organism; dose 3.3% (w/w), week 0): 60 cfu/gram
Total plate count (total micro-organism; dose 3.3% (w/w), week 1): 12100 cfu/gram
Total plate count (total micro-organism; dose 3.3% (w/w), week 4): 1750 cfu/gram
Total plate count (total micro-organism; dose 3.3% (w/w), week 5): 20 cfu/gram
Total plate count (total micro-organism; dose 3.3% (w/w), week 6): <10 cfu/gram
Total plate count (total micro-organism; dose 3.3% (w/w), week 7): 101000 cfu/gram
Total plate count (total micro-organism; dose 3.3% (w/w), week 8): 3.20E+06 cfu/gram
Total plate count (total micro-organism; dose 6.6% (w/w), week 0): 70 cfu/gram
Total plate count (total micro-organism; dose 6.6% (w/w), week 1): 50 cfu/gram
Total plate count (total micro-organism; dose 6.6% (w/w), week 2): 160 cfu/gram
Total plate count (total micro-organism; dose 6.6% (w/w), week 3): 1550 cfu/gram
Total plate count (total micro-organism; dose 6.6% (w/w), week 4): 290 cfu/gram
Total plate count (total micro-organism; dose 6.6% (w/w), week 5): <10 cfu/gram
Total plate count (total micro-organism; dose 6.6% (w/w), week 6): <10 cfu/gram
Total plate count (total micro-organism; dose 6.6% (w/w), week 7): 5000 cfu/gram
Total plate count (total micro-organism; dose 6.6% (w/w), week 8): 960000 cfu/gram
Total plate count (total micro-organism; dose 6.6% (w/w), week 9): 1.24E+06 cfu/gram
pH ([1]; dose 3.3% (w/w), week 0): 11.78
pH ([1]; dose 3.3% (w/w), week 1): 11.57
pH ([1]; dose 3.3% (w/w), week 2): 8.69
pH ([1]; dose 3.3% (w/w), week 3): 9.08
pH ([1]; dose 3.3% (w/w), week 4): 8.45
pH ([1]; dose 3.3% (w/w), week 5): 7.66
pH ([1]; dose 3.3% (w/w), week 6): 9.32
pH ([1]; dose 3.3% (w/w), week 7): 7.25
pH ([1]; dose 3.3% (w/w), week 8): 9.29
pH ([1]; dose 6.6% (w/w), week 0): 12.90
pH ([1]; dose 6.6% (w/w), week 1): 12.30
pH ([1]; dose 6.6% (w/w), week 2): 11.08
pH ([1]; dose 6.6% (w/w), week 3): 11.78
pH ([1]; dose 6.6% (w/w), week 4): 9.51
pH ([1]; dose 6.6% (w/w), week 5): 7.68
pH ([1]; dose 6.6% (w/w), week 6): 10.61
pH ([1]; dose 6.6% (w/w), week 7): 7.25
pH ([1]; dose 6.6% (w/w), week 8): 9.13
pH ([1]; dose 6.6% (w/w), week 9): 8.84

[Ca+2].[O-]CC(O)CO.[O-]CC(O)CO [Ca-DGO granules]
Total plate count (total micro-organism; dose 10% (w/w), week 0): 80 cfu/gram
Total plate count (total micro-organism; dose 10% (w/w), week 1): 510 cfu/gram
Total plate count (total micro-organism; dose 10% (w/w), week 2): 3500 cfu/gram
Total plate count (total micro-organism; dose 10% (w/w), week 4): 30 cfu/gram
Total plate count (total micro-organism; dose 10% (w/w), week 6): 5400 cfu/gram
Total plate count (total micro-organism; dose 10% (w/w), week 8): 410000 cfu/gram
Total plate count (total micro-organism; dose 10% (w/w), week 9): 480000 cfu/gram
Total plate count (total micro-organism; dose 15% (w/w), week 0): 180 cfu/gram
Total plate count (total micro-organism; dose 15% (w/w), week 1): 150 cfu/gram
Total plate count (total micro-organism; dose 15% (w/w), week 4): 70 cfu/gram
Total plate count (total micro-organism; dose 15% (w/w), week 5): 650 cfu/gram
Total plate count (total micro-organism; dose 15% (w/w), week 6): 120 cfu/gram
Total plate count (total micro-organism; dose 15% (w/w), week 7): 700 cfu/gram
Total plate count (total micro-organism; dose 15% (w/w), week 8): 270 cfu/gram
Total plate count (total micro-organism; dose 15% (w/w), week 9): 150 cfu/gram
pH ([1]; dose 10% (w/w), week 0): 10.2
pH ([1]; dose 10% (w/w), week 1): 9.87
pH ([1]; dose 10% (w/w), week 2): 7.09
pH ([1]; dose 10% (w/w), week 3): 7.90
pH ([1]; dose 10% (w/w), week 4): 8.89
pH ([1]; dose 10% (w/w), week 5): 6.83
pH ([1]; dose 10% (w/w), week 6): 8.93
pH ([1]; dose 10% (w/w), week 7): 7.24
pH ([1]; dose 10% (w/w), week 8): 8.63
pH ([1]; dose 10% (w/w), week 9): 8.96
pH ([1]; dose 15% (w/w), week 0): 11.53
pH ([1]; dose 15% (w/w), week 1): 11.35
pH ([1]; dose 15% (w/w), week 2): 6.61
pH ([1]; dose 15% (w/w), week 3): 8.03
pH ([1]; dose 15% (w/w), week 4): 8.54
pH ([1]; dose 15% (w/w), week 5): 7.20
pH ([1]; dose 15% (w/w), week 6): 9.25
pH ([1]; dose 15% (w/w), week 7): 7.21
pH ([1]; dose 15% (w/w), week 8): 9.17
pH ([1]; dose 15% (w/w), week 9): 8.95

[Ca+2].[O-2] [CaO powder]
Total plate count (total micro-organism; dose 5% (w/w), week 0): 640 cfu/gram
Total plate count (total micro-organism; dose 5% (w/w), week 1): 1800 cfu/gram
Total plate count (total micro-organism; dose 5% (w/w), week 2): 280 cfu/gram
Total plate count (total micro-organism; dose 5% (w/w), week 3): 210 cfu/gram
Total plate count (total micro-organism; dose 5% (w/w), week 4): <10 cfu/gram
Total plate count (total micro-organism; dose 5% (w/w), week 6): 40 cfu/gram
Total plate count (total micro-organism; dose 5% (w/w), week 7): 900 cfu/gram
Total plate count (total micro-organism; dose 5% (w/w), week 8): 120 cfu/gram
Total plate count (total micro-organism; dose 5% (w/w), week 9): 20 cfu/gram
Total plate count (total micro-organism; dose 10% (w/w), week 0): 100 cfu/gram
Total plate count (total micro-organism; dose 10% (w/w), week 1): 310 cfu/gram
Total plate count (total micro-organism; dose 10% (w/w), week 2): 150 cfu/gram
Total plate count (total micro-organism; dose 10% (w/w), week 3): 40 cfu/gram
Total plate count (total micro-organism; dose 10% (w/w), week 4): 20 cfu/gram
Total plate count (total micro-organism; dose 10% (w/w), week 6): <10 cfu/gram
Total plate count (total micro-organism; dose 10% (w/w), week 7): 300 cfu/gram
Total plate count (total micro-organism; dose 10% (w/w), week 8): 80 cfu/gram
Total plate count (total micro-organism; dose 10% (w/w), week 9): <10 cfu/gram
minimum preservation time with total microbial counts <60 cfu/g (total micro-organism; [2]): 2 weeks
minimum preservation time with total microbial counts <1000 cfu/g (total micro-organism; [2]): ≧1 year
pH ([1]; dose 5% (w/w), week 0): 12.93
pH ([1]; dose 5% (w/w), week 1): 12.05
pH ([1]; dose 5% (w/w), week 2): 11.19
pH ([1]; dose 5% (w/w), week 3): 7.82
pH ([1]; dose 5% (w/w), week 4): 9.23
pH ([1]; dose 5% (w/w), week 5): 7.55
pH ([1]; dose 5% (w/w), week 6): 9.23
pH ([1]; dose 5% (w/w), week 7): 7.28
pH ([1]; dose 5% (w/w), week 8): 7.60
pH ([1]; dose 5% (w/w), week 9): 8.45
pH ([1]; dose 10% (w/w), week 0): 13.12
pH ([1]; dose 10% (w/w), week 1): 12.56
pH ([1]; dose 10% (w/w), week 2): 12.38
pH ([1]; dose 10% (w/w), week 3): 12.36
pH ([1]; dose 10% (w/w), week 4): 12.20
pH ([1]; dose 10% (w/w), week 5): 12.12
pH ([1]; dose 10% (w/w), week 6): 11.92
pH ([1]; dose 10% (w/w), week 7): 7.56
pH ([1]; dose 10% (w/w), week 8): 8.38
pH ([1]; dose 10% (w/w), week 9): 11.77

[Ca+2].[OH-].[OH-] [calcium hydroxide]
preservation time with total microbial counts <10 cfu/g (total micro-organism; dose 3.3% w/w): ≧6 weeks
preservation time with total microbial counts <100 cfu/g (total micro-organism; dose 3.3% w/w): ≧6 weeks
preservation time with total microbial counts <1000 cfu/g (total micro-organism; dose 3.3% w/w): ≧6 weeks
preservation time with total microbial counts <10 cfu/g (total micro-organism; dose 6.6% w/w): ≧6 weeks
preservation time with total microbial counts <100 cfu/g (total micro-organism; dose 6.6% w/w): ≧6 weeks
preservation time with total microbial counts <1000 cfu/g (total micro-organism; dose 6.6% w/w): ≧6 weeks
